Assay results reported in patent publication US6936628B2, “Oral administration of epothilones” (Bristol-Myers Squibb Company, priority 2002, dated 2005).

Assays:
in vitro = conditions: human, Caco-2
[1] = Microsomal incubation, mouse; conditions: mouse liver microsomes + NADPH, 20 μM
[2] = test system: panel of tumor cell lines; test: In vitro cytotoxicity assay (MTS), panel of tumor cell lines; assay type: cell-based; conditions: Homo sapiens; 7 of the 8 cell lines tested, 72-hour incubation
[3] = test system: human ovarian carcinoma xenograft A2780; test: Antitumor activity by parenteral administration to rats, A2780 xenograft; assay type: in vivo, nude rats
Method: The required number of animals needed to detect a meaningful response were pooled at the start of the experiment and each was given a subcutaneous implant of a tumor fragment (≈50 mg) with a 13-gauge trocar. For treatment of early-stage tumors, the animals were again pooled before distribution to the various treatment and control groups. For treatment of animals with advanced-stage disease, tumors were allowed to grow to the pre-determined size window (tumors outside the range were excluded) and animals were evenly distributed to various treatment and control groups. Treatment of each animal was based on individual body weight. Treated animals were checked daily for treatment related toxicity/mortality. Each group of animals was weighed before the initiation of treatment (Wt1) and then again following the last treatment dose (Wt2). The difference in body weight (Wt2−Wt1) provides a measure of treatment-related toxicity.
Tumor response was determined by measurement of tumors with a caliper twice a week, until the tumors reach a predetermined “target” size of 1 gm. Tumor weights (mg) were estimated from the formula: Tumor weight=(length×width^2)÷2
Antitumor activity was evaluated at the maximum tolerated dose (MTD) which is defined as the dose level immediately […] which excessive toxicity (i.e. more than one death) occurred. The MTD was frequently equivalent to OD. When death occurred, the day of death was recorded. Treated mice dying prior to having their tumors reach target size were considered to have died from drug toxicity. No control mice died bearing tumors less than target size. Treatment groups with more than one death caused by drug toxicity were considered to have had excessively toxic treatments and their data were not included in the evaluation of a compound's antitumor efficacy.
Tumor response end-point was expressed in terms of tumor growth delay (T−C value), defined as the difference in time (days) required for the treated tumors (T) to reach a predetermined target size compared to those of the control group (C).
To estimate tumor cell kill, the tumor volume doubling time was first calculated with the formula: TVDT=Median time (days) for control tumors to reach target size−Median time (days) for control tumors to reach half the target size and Log cell kill=T−C÷(3.32×TVDT)
Compound A was evaluated versus the human ovarian carcinoma xenograft A2780 grown in nude rats. […] In comparison, Compound B produced 3.3 LCK at its MTD (2.4 mg/kg/inj, IV, every 8 days×2).

[4] = Microsomal incubation, human; conditions: human liver microsomes + NADPH, 20 μM
in vivo [5] = conditions: Balb/c nu/nu, mouse, po
[6] = Stability in dog EDTA plasma and whole blood; assay type: in vitro ADME
Method: Plasma samples from exploratory pharmacokinetic studies were analyzed for Compound A concentrations using an LC/MS/MS assay with a standard curve range of 3.9 to 2000 ng/mL. In pharmacodynamic studies, Compound A concentrations were determined using an LC/MS/MS assay with a standard curve range of 10-40000 nM (5.23-20920 ng/mL) in mouse plasma. For toxicology studies, validated LC/MS/MS assays were used to determine the concentrations of Compound A in rat and dog plasma. Analytical data management for the validated assays was carried out using Watson®. The standard curve range for the validated assay in both matrices was 2 to 500 ng/mL of Compound A. The coefficient of variation for the inter- and intra-assay precision in rat and dog plasma was within 9% and the accuracy was greater than 92%. […] Compound A was stable for at least 4 months at !20EC and through at least 3 freeze-thaw cycles in rat and dog EDTA plasma. In addition, Compound A was stable in fresh rat and dog EDTA whole blood for at least 1 h at 4EC.

[7] = molecular target: T1, HERG (IKr) potassium channel (Homo sapiens, UniProt Q12809); test: HERG (IKr current) assay; assay type: cell-based; conditions: 30 μM, HEK293 cells transfected with HERG
T1 construct: expressed in transfected cells; host or cells: HEK293
T1 sequence (Q12809 whole entry): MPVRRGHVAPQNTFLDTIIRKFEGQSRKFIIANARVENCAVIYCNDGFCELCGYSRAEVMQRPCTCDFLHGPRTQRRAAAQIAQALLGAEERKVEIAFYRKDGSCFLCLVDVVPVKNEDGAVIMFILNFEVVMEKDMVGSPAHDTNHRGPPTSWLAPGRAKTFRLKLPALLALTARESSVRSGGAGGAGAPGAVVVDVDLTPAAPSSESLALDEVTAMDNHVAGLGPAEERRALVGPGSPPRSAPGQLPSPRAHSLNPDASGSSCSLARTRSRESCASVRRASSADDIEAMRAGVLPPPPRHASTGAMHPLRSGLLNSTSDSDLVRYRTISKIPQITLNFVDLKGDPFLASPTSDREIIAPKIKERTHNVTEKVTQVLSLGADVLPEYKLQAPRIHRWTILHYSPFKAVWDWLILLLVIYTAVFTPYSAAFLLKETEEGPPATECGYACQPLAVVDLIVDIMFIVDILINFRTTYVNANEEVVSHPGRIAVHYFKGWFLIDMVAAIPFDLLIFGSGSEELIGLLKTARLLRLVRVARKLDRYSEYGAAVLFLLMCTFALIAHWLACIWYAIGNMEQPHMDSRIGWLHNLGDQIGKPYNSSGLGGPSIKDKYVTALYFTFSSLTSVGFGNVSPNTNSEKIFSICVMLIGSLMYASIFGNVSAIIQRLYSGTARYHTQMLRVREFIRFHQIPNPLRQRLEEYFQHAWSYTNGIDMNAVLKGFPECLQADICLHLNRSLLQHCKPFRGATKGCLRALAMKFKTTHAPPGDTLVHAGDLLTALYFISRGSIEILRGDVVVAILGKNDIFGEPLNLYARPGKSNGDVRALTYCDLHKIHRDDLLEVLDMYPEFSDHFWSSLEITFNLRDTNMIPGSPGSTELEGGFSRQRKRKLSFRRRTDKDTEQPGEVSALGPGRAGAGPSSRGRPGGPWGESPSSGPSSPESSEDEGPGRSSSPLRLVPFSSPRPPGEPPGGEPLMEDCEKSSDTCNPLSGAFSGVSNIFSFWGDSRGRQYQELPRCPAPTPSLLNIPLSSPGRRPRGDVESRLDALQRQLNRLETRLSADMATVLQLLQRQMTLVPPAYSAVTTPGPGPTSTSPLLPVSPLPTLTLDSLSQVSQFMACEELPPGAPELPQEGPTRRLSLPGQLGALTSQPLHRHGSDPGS
Method: Human embryonic kidney (HEK293) cells stably transfected with the human ether-a-go-go related gene (HERG) cDNA were utilized in the HERG assay. Rabbit Purkinje fibres were used for the Purkinje-fibre action potential assay^7.
In a non-GLP study^7, Compound A was evaluated for effects on potassium channel current at concentrations of 10 and 30 μM. The human ether-a-go-go related gene (HERG) encodes the rapidly activating delayed-rectifier potassium channel (IKr) in heart. […] Based on the findings, it is unlikely that Compound A would cause IKr-mediated increases in the QT interval at anticipated therapeutic plasma concentrations.

in vivo [8] = conditions: male, Sprague-Dawley, rat, plasma, other: intraarterial (IA), 2 mg/kg
Method: In another pharmacokinetic study, fasted male Sprague-Dawley rats, assigned to two IA groups (2 mg/kg) and one oral (8 mg/kg) group (n=3/group), were administered a single dose of Compound A. Compound A was prepared for IA administration in two separate vehicles: vehicle 1, cremophor:ethanol:water (10:10:80), and vehicle 2, ethanol:phosphate buffer, 0.05 M, pH 7.4 (6:94). The vehicle for the oral administration was ethanol:phosphate buffer, 0.3 M, pH 8 (18:82). Samples were collected at 10, 15, 30, and 45 min, and at 1, 2, 4, 6, 8, 10, 24, and 48 hours after dosing.

[9] = test system: sc Pat-7 human ovarian carcinoma; test: Minimum effective infusional dose regimen versus sc Pat-7; assay type: in vivo, mice; conditions: constant-rate IV infusion over 10 hr
Liver S9 incubation, dog = conditions: dog liver S9, 20 μM
[10] = Single dose IV toxicokinetic study in dogs; assay type: in vivo; conditions: both sexes, dog, plasma, IV infusion; for Cmax: combined across gender
Method: The single dose IV toxicokinetics of Compound A were evaluated in dogs as a part of a toxicology study. Compound A, prepared in 50 mM citrate buffer (pH 5), was given by IV infusion (over approximately 2-3 min period) at nominal doses of 0.07 and 0.35 mg/kg (the actual doses were 0.055 and 0.27 mg/kg, respectively) to 2 dogs/sex/dose. Blood samples were collected at 5 and 30 minutes, and at 1, 3, 6, 12, and 24 h after dosing. Plasma concentrations of Compound A were determined using a validated LC/MS/MS assay with a standard curve range of 2-500 ng/mL. […] Definitive comparison between sex was not made due to limited sample size per sex; however, it appeared that there were no marked differences in the systemic exposure to Compound A between male and female dogs.

in vivo [11] = conditions: male, Sprague-Dawley, rat, plasma, 2 mg/kg, rats, IA 2 mg/kg
Source text: A total of eight rats were divided into four groups (three IA groups and one oral group), with two rats in each group. […] The vehicle used for the oral administration was propylene glycol:ethanol:phophate buffer, 1 M, pH 8 (58:12:30).

C/C(=C\c1csc(CN)n1)[C@@H]1C[C@@H]2O[C@]2(C)CCC[C@H](C)[C@H](O)[C@@H](C)C(=O)C(C)(C)[C@@H](O)CC(=O)O1 (relative stereo) [Compound A, [1S-[1R*,3R*(E),7R*,10S*,11R*,12R*,16S*]]-3-[2-[2-(aminomethyl)-4-thiazolyl]-1-methylethenyl]-7,11-dihydroxy-8,8,10,12,16-pentamethyl-4,17-dioxabicyclo[14.1.0]heptadecane-5,9-dione]
Papp at 200 μM (in vitro): 6 ×10⁻⁶ cm/s | rate of oxidative metabolism [1]: 0.3 | IC50 [2]: 0.9 to 3.5 nM | LCK ([3]; A2780 in nude rats, IV, every 8 days×2, at MTD): 0.7 | MTD ([3]; nude rats bearing A2780, IV, every 8 days×2): 3 mg/kg/inj | rate of oxidative metabolism [4]: 0.21 mmol/min/mg protein | MTD (in vivo [5]): 90 mg/kg | stable through freeze-thaw cycles ([6]; dog EDTA plasma): at least 3 freeze-thaw cycles | stable in plasma prior to processing ([6]; dog EDTA plasma, 4EC): at least 4 h | stable in frozen plasma ([6]; dog EDTA plasma, !20EC): at least 4 months | stable in fresh whole blood ([6]; dog EDTA whole blood, 4EC): at least 1 h | stable in an autosampler after processing ([6]; dog plasma samples, 4EC): at least 5 days | maximum inhibition of IKr current [7]: 13.5% | AUC (in vivo [8]): 2890 ng·h/mL | AUC (in vivo [8]; pH 7.4): 717 ng·h/mL | Tumor growth delay equivalent to LCK ([9]; 2 mg/kg): 0.1 | Tumor growth delay equivalent to LCK ([9]; 4 mg/kg): 0.7 | Tumor growth delay equivalent to LCK ([9]; 8 mg/kg): 1.1 | Tumor growth delay equivalent to LCK ([9]; 16 mg/kg): 1.7 | rate of oxidative metabolism (Liver S9 incubation, dog): 0.03 | AUC ([10]; 0.055 mg/kg): 48.3 ng·h/mL | Cmax ([10]; 0.055 mg/kg): 104 ng/mL | AUC ([10]; 0.27 mg/kg): 362 ng·h/mL | Cmax ([10]; 0.27 mg/kg): 664 ng/mL | AUC (in vivo [11]; mean AUC, vehicle 1 ethanol:water (10:90)): 133 ng·h/mL | AUC (in vivo [11]; mean AUC, vehicle 2 cremophor:ethanol:water (10:10:80)): 708 ng·h/mL | AUC (in vivo [11]; pH 7.4, mean AUC, vehicle 3 propylene glycol:ethanol:phosphate buffer pH 7.4 (40:5:55)): 210 ng·h/mL
